Experimental data from US20220184099A1, “METHODS OF USING OBETICHOLIC ACID” (Intercept Pharmaceuticals, Inc., priority 2018, published 2022).

Assays:
[1] = Plasma PK of total OCA (AUC0-24 h), serial sampling on Day 1 and Day 28 of dosing; format: in vivo, human
Method: (§1) To evaluate safety, the PK and PD of OCA administered at 10 mg/day or 25 mg/day in subjects with compensated cirrhosis due to NASH was compared to healthy controls in a randomized, double blind, single center, Phase 3 study. Sixteen subjects with cirrhosis due to NASH and 8 healthy, age- and weight-matched, subjects were randomized in a 1:1 ratio to QD OCA 10 mg or OCA 25 mg for 28 days, according to FIG. 1 and Table 1. Extensive serial PK sampling over a 24-hour period was performed on Day 1 and Day 28 of dosing.

[2] = Liver biochemistry (ALT, AST, GGT, ALP, bilirubin) during 28 days of QD OCA; format: in vivo, human
Method: as §1

FXR = target: T1, FXR (Homo sapiens, UniProt Q96RI1); experiment: PD markers of FXR activation (C4, FGF-19) during 28 days of QD OCA; format: in vivo
T1 construct: FGF-19 released from gut enterocytes (in response to FXR agonist) into portal circulation down regulates endogenous bile acid synthesis in the liver; endogenous in cells; host or cells: human study subjects in vivo (gut enterocytes, liver)
T1 sequence (Q96RI1 1-486): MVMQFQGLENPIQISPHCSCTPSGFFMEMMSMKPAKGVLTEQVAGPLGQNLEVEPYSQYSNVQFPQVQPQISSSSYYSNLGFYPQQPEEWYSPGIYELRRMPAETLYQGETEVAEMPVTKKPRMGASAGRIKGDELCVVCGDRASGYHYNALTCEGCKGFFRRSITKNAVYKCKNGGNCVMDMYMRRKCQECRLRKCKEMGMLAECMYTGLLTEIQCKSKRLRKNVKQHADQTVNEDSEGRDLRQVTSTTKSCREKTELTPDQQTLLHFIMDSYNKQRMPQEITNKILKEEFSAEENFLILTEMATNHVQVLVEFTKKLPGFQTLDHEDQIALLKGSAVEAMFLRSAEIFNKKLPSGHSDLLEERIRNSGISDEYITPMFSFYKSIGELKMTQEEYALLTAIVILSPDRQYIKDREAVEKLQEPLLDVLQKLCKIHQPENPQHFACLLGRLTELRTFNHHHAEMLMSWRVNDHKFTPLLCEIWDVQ
Description: In one aspect, obeticholic acid may mediate its action primarily via FXR agonism, wherein FGF-19 released from gut enterocytes (in response to FXR agonist) into portal circulation down regulates endogenous bile acid synthesis in the liver. The present disclosure comprehends a method of measuring FXR agonist activity by, for example, measuring release of FGF-19 into the bloodstream or circulation of a patient administered with OCA. Levels of FGF-19 may be measured by methods known in the art, such as those described herein.
In some embodiments, the plasma levels of FGF-19, a marker of FXR activation, are determined using a qualified method and a validated method using an enzyme-linked immunosorbent assay (ELISA) method. The plasma concentrations of FGF-19 may be quantitated at predose and after administration of dose.
In some examples, a monoclonal antibody specific for FGF-19 is pre-coated onto a microplate. Standards, quality controls and samples are pipetted into the wells and any FGF-19 present is bound by the immobilized antibody. After washing away any unbound substances, an enzyme-linked polyclonal antibody specific for FGF-19 is added to the wells. Following a wash to remove any unbound antibody-enzyme reagent, a substrate solution is added to the wells and color develops in the proportion to the amount of FGF-19 bound in the initial step. The color development is stopped and the intensity of the color is measured. The calibration range of the method is 15.625 pg/ml to 1000 pg/ml for FGF-19 using a 100 μl aliquot of standard curve, quality control and sample. In some embodiments, no minimum required dilution is used. In other embodiments, samples may be subjected to a 3× minimum required dilution.
To evaluate safety, the PK and PD of OCA administered at 10 mg/day or 25 mg/day in subjects with compensated cirrhosis due to NASH was compared to healthy controls in a randomized, double blind, single center, Phase 3 study. […]

[3] = Albumin, creatinine, platelets and INR levels in subjects of the clinical study; format: in vivo, human; details: for Albumin, % Change at Day 28 / Albumin, Day 28 / Creatinine, % Change at Day 28 / Creatinine, Day 28 / Platelets, % Change at Day 28 / Platelets, Day 28: median
Method: as §1

[4] = Adverse events, safety and tolerability of OCA 10 mg or 25 mg QD for 28 days; format: in vivo, human; details: for Total adverse events (AEs): both doses
Method: as §1

[5] = both dose groups, throughout the 28-day study

CC[C@H]1[C@@H](O)[C@@H]2[C@H](CC[C@]3(C)[C@@H]([C@H](C)CCC(=O)O)CC[C@@H]23)[C@@]2(C)CC[C@@H](O)C[C@@H]12 [OCA, 3α,7α-dihydroxy-6α-ethyl-5β-cholan-24-oic acid]
Plasma exposure of total OCA in subjects with cirrhosis due to NASH relative to healthy subjects ([1]; daily OCA 10 mg and 25 mg): higher | Hepatic exposure of OCA ([1]; despite increased systemic exposure, FIGS. 11A and 11B): remain nominal | Bilirubin levels (direct and total) ([2]; 10 mg and 25 mg groups, 28 days): no apparent trend | ALP ([2]; OCA 25 mg group, mostly driven by subjects with elevated ALP at Baseline): moderate increase | ALT [2, 5]: improvements | AST [2, 5]: improvements | GGT [2, 5]: improvements | PD effects (FXR; both doses of OCA): favorable PD effects | C4 (FXR; both dosing groups): suppression | FGF-19 (FXR; both dosing groups): activation | Albumin levels ([3]; 28 days): No changes | INR ([3]; 28 days): No changes | Platelet levels ([3]; 28 days): No changes | Albumin, % Change at Day 28 ([3]; Healthy, 10 mg OCA (n = 4)): 2.3% | Albumin, Day 28 ([3]; Healthy, 10 mg OCA (n = 4)): 4.5 g/dL | Creatinine, % Change at Day 28 ([3]; Healthy, 10 mg OCA (n = 4)): −1.6% | Creatinine, Day 28 ([3]; Healthy, 10 mg OCA (n = 4)): 0.96 mg/dL | Platelets, % Change at Day 28 ([3]; Healthy, 10 mg OCA (n = 4)): 0.4% | Platelets, Day 28 ([3]; Healthy, 10 mg OCA (n = 4)): 262.0 10^9/L | Albumin, % Change at Day 28 ([3]; Healthy, 25 mg OCA (n = 4)): −4.0% | Albumin, Day 28 ([3]; Healthy, 25 mg OCA (n = 4)): 4.0 g/dL | Creatinine, % Change at Day 28 ([3]; Healthy, 25 mg OCA (n = 4)): 8.3% | Creatinine, Day 28 ([3]; Healthy, 25 mg OCA (n = 4)): 0.78 mg/dL | Platelets, % Change at Day 28 ([3]; Healthy, 25 mg OCA (n = 4)): 4.0% | Platelets, Day 28 ([3]; Healthy, 25 mg OCA (n = 4)): 261.0 10^9/L | Albumin, % Change at Day 28 ([3]; NASH CP-A, 10 mg OCA (n = 8)): −3.9% | Albumin, Day 28 ([3]; NASH CP-A, 10 mg OCA (n = 8)): 4.0 g/dL | Creatinine, % Change at Day 28 ([3]; NASH CP-A, 10 mg OCA (n = 8)): 4.3% | Creatinine, Day 28 ([3]; NASH CP-A, 10 mg OCA (n = 8)): 0.88 mg/dL | Platelets, % Change at Day 28 ([3]; NASH CP-A, 10 mg OCA (n = 8)): −9.7% | Platelets, Day 28 ([3]; NASH CP-A, 10 mg OCA (n = 8)): 101.5 10^9/L | Albumin, % Change at Day 28 ([3]; NASH CP-A, 25 mg OCA (n = 8)): −6.5% | Albumin, Day 28 ([3]; NASH CP-A, 25 mg OCA (n = 8)): 4.0 g/dL | Creatinine, % Change at Day 28 ([3]; NASH CP-A, 25 mg OCA (n = 8)): 0.8% | Creatinine, Day 28 ([3]; NASH CP-A, 25 mg OCA (n = 8)): 0.87 mg/dL | Platelets, % Change at Day 28 ([3]; NASH CP-A, 25 mg OCA (n = 8)): −2.0% | Platelets, Day 28 ([3]; NASH CP-A, 25 mg OCA (n = 8)): 155.5 10^9/L | Subjects who discontinued treatment due to elevated bilirubin levels ([4]; NASH, OCA 25 mg, advanced disease with portal hypertension and history of hyperbilirubinemia, discontinued on Day 25): One | Liver-related adverse events reported ([4]; all subjects): one | Serious adverse events ([4]; all subjects): No serious adverse events were observed | Severity of all AEs ([4]; all subjects, no trend for liver related AEs): mild or moderate | Overall safety and tolerability ([4]; daily OCA at 10 mg and 25 mg): generally safe and well tolerated | Subjects experiencing adverse events ([4]; healthy subjects on 10 mg): 3 subjects | Subjects experiencing adverse events ([4]; healthy subjects on 25 mg): 2 subjects | Total adverse events (AEs) ([4]; healthy subjects): 5 AEs | Subjects experiencing adverse events ([4]; healthy subjects, both doses (of 8)): 5 subjects | Subjects experiencing adverse events ([4]; subjects with NASH on 10 mg): 2 subjects | Subjects experiencing adverse events ([4]; subjects with NASH on 25 mg): 4 subjects | Total adverse events (AEs) ([4]; subjects with NASH): 13 AEs | Subjects experiencing adverse events ([4]; subjects with NASH, both doses (of 16)): Six | Subjects reporting mild or moderate pruritus ([4]; subjects with NASH, no relationship to dose): Four | Time for bilirubin levels to return to normal after discontinuation of OCA ([4]; the one NASH subject on 25 mg who discontinued): 1 days
